PubChem BioAssay AID328 (DTP/NCI, 2004)
Where “and” joins values, the source holds several entries; their conditions need not be identical. Identical values can stand only once. Inconclusive results and toxic doses are left out.

Test system: BDF1 mice, P388 leukemia ip, median survival T/C
Experiment: NCI In Vivo Anticancer Drug Screen. Data for tumor model P388 Leukemia (intraperitoneal) in B6D2F1 (BDF1) mice
Details: endpoint: median survival time, higher = longer survival
How it was run: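 In tumour-bearing mice, survival after compound treatment is set against the vehicle group and given as a quotient.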

[1] = dose: 25.0 mg/kg/injection, schedule: Q01DX009 (ip), vehicle: saline
[2] = dose: 50.0 mg/kg/injection, schedule: Q01DX009 (ip), vehicle: saline
[3] = dose: 100.0 mg/kg/injection, schedule: Q01DX009 (ip), vehicle: saline
[4] = dose: 100.0 mg/kg/injection, schedule: Q04DX003 (ip), vehicle: saline
[5] = dose: 200.0 mg/kg/injection, schedule: Q01DX009 (ip), vehicle: saline with Tween-80
[6] = dose: 200.0 mg/kg/injection, schedule: Q04DX003 (ip), vehicle: saline
[7] = dose: 400.0 mg/kg/injection, schedule: Q01DX009 (ip), vehicle: saline
[8] = dose: 200.0 mg/kg/injection, schedule: Q01DX009 (ip), vehicle: saline
[9] = dose: 100.0 mg/kg/injection, schedule: Q04DX003 (ip), vehicle: Klucel (hydroxypropylcellulose) (HPC)
[10] = dose: 200.0 mg/kg/injection, schedule: Q04DX003 (ip), vehicle: Klucel (hydroxypropylcellulose) (HPC)
[11] = dose: 400.0 mg/kg/injection, schedule: Q04DX003 (ip), vehicle: Klucel (hydroxypropylcellulose) (HPC)
[12] = dose: 100.0 mg/kg/injection, schedule: Q01DX009 (ip), vehicle: Klucel (hydroxypropylcellulose) (HPC)
[13] = dose: 200.0 mg/kg/injection, schedule: Q01DX009 (ip), vehicle: Klucel (hydroxypropylcellulose) (HPC)
[14] = dose: 400.0 mg/kg/injection, schedule: Q01DX009 (ip), vehicle: Klucel (hydroxypropylcellulose) (HPC)
[15] = dose: 50.0 mg/kg/injection, schedule: Q01DX009 (ip), vehicle: water
[16] = dose: 100.0 mg/kg/injection, schedule: Q01DX009 (ip), vehicle: water
[17] = dose: 400.0 mg/kg/injection, schedule: Q01DX009 (ip), vehicle: water
[18] = dose: 50.0 mg/kg/injection, schedule: Q01DX009 (ip), vehicle: saline with Tween-80
[19] = dose: 50.0 mg/kg/injection, schedule: Q04DX003 (ip), vehicle: saline with Tween-80
[20] = dose: 100.0 mg/kg/injection, schedule: Q01DX009 (ip), vehicle: saline with Tween-80
[21] = dose: 100.0 mg/kg/injection, schedule: Q04DX003 (ip), vehicle: saline with Tween-80

## C=CCSc1nc(N)nc2c1ncn2C1CC(O)C(CO)O1 (configuration not stated)
[1]
  T/C: 102 % of control
[2]
  T/C: 114 % of control and 111 % of control
[3]
  T/C: 123 % of control and 95 % of control
[4]
  T/C: 104 % of control
[5]
  T/C: 181 % of control
[6]
  T/C: 122 % of control and 94 % of control and 100 % of control
dose: 300.0 mg/kg/injection, schedule: Q01DX009 (ip), vehicle: saline with Tween-80
  T/C: 154 % of control
[7]
  T/C: 107 % of control
dose: 400.0 mg/kg/injection, schedule: Q04DX003 (ip), vehicle: saline
  T/C: 99 % of control and 104 % of control

## CC(C)n1c2c([n+](C)c1/C=C/c1ccccc1)C(=O)c1ccccc1C2=O
dose: 0.5 mg/kg/injection, schedule: Q01DX010 (ip), vehicle: saline
  T/C: 109 % of control
dose: 1.0 mg/kg/injection, schedule: Q01DX009 (ip), vehicle: Klucel (hydroxypropylcellulose) (HPC)
  T/C: 105 % of control
dose: 2.0 mg/kg/injection, schedule: Q01DX010 (ip), vehicle: saline
  T/C: 122 % of control

## Clc1ncnc2c1ncn2C1CCCO1 (configuration not stated)
[4]
  T/C: 104 % of control
[6]
  T/C: 104 % of control

## COC1CCCCC1Br (configuration not stated)
[3]
  T/C: 113 % of control
[8]
  T/C: 109 % of control
[7]
  T/C: 104 % of control

## COC(OC)c1[nH]c(=S)[nH]c(=O)c1C
dose: 100.0 mg/kg/injection, schedule: Q04DX003 (sc), vehicle: olive oil, sesame oil, peanut oil
  T/C: 90 % of control
dose: 200.0 mg/kg/injection, schedule: Q04DX003 (sc), vehicle: olive oil, sesame oil, peanut oil
  T/C: 95 % of control
dose: 400.0 mg/kg/injection, schedule: Q04DX003 (sc), vehicle: olive oil, sesame oil, peanut oil
  T/C: 90 % of control

## Cc1ccc(NC(=O)c2ccccc2C(=O)O)cc1Cl
[9]
  T/C: 95 % of control
[10]
  T/C: 95 % of control
[11]
  T/C: 91 % of control

## COC(=O)C(Br)C(OC)c1ccccc1 (configuration not stated)
[12]
  T/C: 91 % of control
[13]
  T/C: 95 % of control
[14]
  T/C: 95 % of control

## COc1c(C(C)(C)C)cc([N+](=O)[O-])c(C)c1[N+](=O)[O-]
[9]
  T/C: 100 % of control
[10]
  T/C: 100 % of control
[11]
  T/C: 95 % of control

## C/C(=N/N(C)C)c1nc(N)nc(N)c1-c1ccc(Cl)cc1
dose: 25.0 mg/kg/injection, schedule: Q01DX001 (ip), vehicle: saline with Tween-80
  T/C: 102 % of control
dose: 50.0 mg/kg/injection, schedule: Q01DX001 (ip), vehicle: saline with Tween-80
  T/C: 109 % of control
dose: 100.0 mg/kg/injection, schedule: Q01DX001 (ip), vehicle: saline with Tween-80
  T/C: 90 % of control and 96 % of control

## COc1ccc(CN2CC(C)NC(C)C2)cc1 (configuration not stated)
dose: 3.12 mg/kg/injection, schedule: Q01DX009 (ip), vehicle: water
  T/C: 108 % of control
dose: 6.25 mg/kg/injection, schedule: Q01DX009 (ip), vehicle: water
  T/C: 103 % of control
dose: 12.5 mg/kg/injection, schedule: Q01DX009 (ip), vehicle: water
  T/C: 95 % of control
dose: 25.0 mg/kg/injection, schedule: Q01DX009 (ip), vehicle: water
  T/C: 91 % of control
[15]
  T/C: 117 % of control
[16]
  T/C: 100 % of control
dose: 100.0 mg/kg/injection, schedule: Q04DX003 (ip), vehicle: water
  T/C: 99 % of control
dose: 200.0 mg/kg/injection, schedule: Q01DX009 (ip), vehicle: water
  T/C: 98 % of control
dose: 300.0 mg/kg/injection, schedule: Q01DX009 (ip), vehicle: water
  T/C: 117 % of control
[17]
  T/C: 97 % of control

## C#CCOC(=O)Nc1cccc2ccccc12
[12]
  T/C: 100 % of control
[9]
  T/C: 100 % of control
[13]
  T/C: 110 % of control
[10]
  T/C: 100 % of control
[14]
  T/C: 120 % of control
[11]
  T/C: 109 % of control

## Cc1cc(=O)n(Cc2ccccc2)c(O)c1C
[9]
  T/C: 102 % of control
[10]
  T/C: 94 % of control

## O=C1OC(c2ccccc2)=C/C1=C/c1ccc([N+](=O)[O-])cc1
dose: 25.0 mg/kg/injection, schedule: Q01DX009 (ip), vehicle: saline with Tween-80
  T/C: 104 % of control
[18]
  T/C: 90 % of control
[19]
  T/C: 105 % of control
[20]
  T/C: 100 % of control
[21]
  T/C: 109 % of control
[5]
  T/C: 92 % of control
dose: 200.0 mg/kg/injection, schedule: Q04DX003 (ip), vehicle: saline with Tween-80
  T/C: 99 % of control and 104 % of control
dose: 300.0 mg/kg/injection, schedule: Q04DX003 (ip), vehicle: saline with Tween-80
  T/C: 87 % of control
dose: 400.0 mg/kg/injection, schedule: Q01DX009 (ip), vehicle: saline with Tween-80
  T/C: 92 % of control
dose: 400.0 mg/kg/injection, schedule: Q04DX003 (ip), vehicle: saline with Tween-80
  T/C: 96 % of control
dose: 600.0 mg/kg/injection, schedule: Q04DX003 (ip), vehicle: saline with Tween-80
  T/C: 91 % of control

## O=C1c2ccccc2C(=O)c2cc3c(cc21)CCCC3
[15]
  T/C: 94 % of control
[16]
  T/C: 87 % of control
[17]
  T/C: 96 % of control
dose: 800.0 mg/kg/injection, schedule: Q01DX009 (ip), vehicle: water
  T/C: 107 % of control

## C=C(C)C12CC(C)C34OC5(CCCCCCCC(C)C6C(C)C(OC(=O)c7ccccc7)C(O)(C(O)C7(COC(=O)CCCCCCCCCCCCCCC)OC7C3C1O5)C64)O2 (configuration not stated)
dose: 0.6 micrograms/kg/injection, schedule: Q01DX009 (ip), vehicle: saline + alcohol
  T/C: 104 % of control
dose: 1.3 micrograms/kg/injection, schedule: Q01DX009 (ip), vehicle: saline + alcohol
  T/C: 112 % of control
dose: 1.5 micrograms/kg/injection, schedule: Q01DX009 (ip), vehicle: saline + alcohol
  T/C: 103 % of control
dose: 2.5 micrograms/kg/injection, schedule: Q01DX009 (ip), vehicle: saline + alcohol
  T/C: 109 % of control
dose: 3.1 micrograms/kg/injection, schedule: Q01DX009 (ip), vehicle: saline + alcohol
  T/C: 106 % of control
dose: 5.0 micrograms/kg/injection, schedule: Q01DX009 (ip), vehicle: saline + alcohol
  T/C: 112 % of control
dose: 10.0 micrograms/kg/injection, schedule: Q01DX009 (ip), vehicle: saline + alcohol
  T/C: 96 % of control
dose: 12.5 micrograms/kg/injection, schedule: Q01DX009 (ip), vehicle: saline + alcohol
  T/C: 154 % of control
dose: 20.0 micrograms/kg/injection, schedule: Q01DX009 (ip), vehicle: saline + alcohol
  T/C: 116 % of control
dose: 25.0 micrograms/kg/injection, schedule: Q01DX009 (ip), vehicle: saline + alcohol
  T/C: 168 % of control
dose: 50.0 micrograms/kg/injection, schedule: Q01DX009 (ip), vehicle: saline + alcohol
  T/C: 183 % of control
dose: 80.0 micrograms/kg/injection, schedule: Q01DX009 (ip), vehicle: saline + alcohol
  T/C: 116 % of control

## CCC1COC(CC)N1 (configuration not stated)
dose: 50.0 mg/kg/injection, schedule: Q01DX005 (ip), vehicle: saline with Tween-80
  T/C: 103 % of control
dose: 100.0 mg/kg/injection, schedule: Q01DX005 (ip), vehicle: saline with Tween-80
  T/C: 110 % of control
dose: 200.0 mg/kg/injection, schedule: Q01DX005 (ip), vehicle: saline with Tween-80
  T/C: 120 % of control

## CS(C)=O
[8]
  T/C: 100 % of control
[7]
  T/C: 100 % of control
dose: 600.0 mg/kg/injection, schedule: Q01DX009 (ip), vehicle: saline
  T/C: 100 % of control
dose: 800.0 mg/kg/injection, schedule: Q01DX009 (ip), vehicle: saline
  T/C: 95 % of control

## COc1cc2c(cc1OC)C(=O)CN(S(=O)(=O)c1ccc(C)cc1)CC2
[1]
  T/C: 95 % of control
[2]
  T/C: 104 % of control
[3]
  T/C: 104 % of control
[9]
  T/C: 100 % of control
[10]
  T/C: 95 % of control
[11]
  T/C: 95 % of control

## O=C(O)C(Cc1cccc(F)c1)NC(=O)C(F)(F)F (configuration not stated)
dose: 1.56 mg/kg/injection, schedule: Q01DX009 (ip), vehicle: saline
  T/C: 105 % of control
dose: 3.13 mg/kg/injection, schedule: Q01DX009 (ip), vehicle: saline
  T/C: 96 % of control
dose: 6.25 mg/kg/injection, schedule: Q01DX009 (ip), vehicle: saline
  T/C: 104 % of control

## CC1(C)N=C(N)N=C(N)N1c1cccc(CNC(=O)Nc2cccc(S(=O)(=O)F)c2)c1
[18]
  T/C: 154 % of control
[19]
  T/C: 100 % of control
[20]
  T/C: 168 % of control
[21]
  T/C: 100 % of control
